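Results reflect a 48-hour exposure of cells in 96-well plates to compound at five concentrations. Definition used: TGI = concentration required for complete inhibition of growth.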
Columns and labels:
Test in all cases: growth of human tumour cells (NCI), 48 h
786-0 renal = system: 786-0 renal
A498 renal = system: A498 renal
A549 NSCLC = system: A549 NSCLC
ACHN renal = system: ACHN renal
BT-549 breast = system: BT-549 breast
CAKI-1 renal = system: CAKI-1 renal
CCRF-CEM leukemia = system: CCRF-CEM leukemia
COLO 205 colon = system: COLO 205 colon
DU-145 prostate = system: DU-145 prostate
EKVX NSCLC = system: EKVX NSCLC
HCC-2998 colon = system: HCC-2998 colon
HCT-116 colon = system: HCT-116 colon
HCT-15 colon = system: HCT-15 colon
HL-60(TB) leukemia = system: HL-60(TB) leukemia
HOP-62 NSCLC = system: HOP-62 NSCLC
HS 578T breast = system: HS 578T breast
HT29 colon = system: HT29 colon
IGROV1 ovarian = system: IGROV1 ovarian
K-562 leukemia = system: K-562 leukemia
KM12 colon = system: KM12 colon
LOX IMVI melanoma = system: LOX IMVI melanoma
M14 melanoma = system: M14 melanoma
MALME-3M melanoma = system: MALME-3M melanoma
MCF7 breast = system: MCF7 breast
MDA-MB-231 breast = system: MDA-MB-231 breast
MDA-MB-435 = system: MDA-MB-435
MDA-N = system: MDA-N
MOLT-4 leukemia = system: MOLT-4 leukemia
NCI-H226 lung = system: NCI-H226 lung
NCI-H23 lung = system: NCI-H23 lung
NCI-H460 lung = system: NCI-H460 lung
NCI-H522 lung = system: NCI-H522 lung
NCI/ADR-RES ovarian = system: NCI/ADR-RES ovarian
OVCAR-3 ovarian = system: OVCAR-3 ovarian
OVCAR-4 ovarian = system: OVCAR-4 ovarian
OVCAR-5 ovarian = system: OVCAR-5 ovarian
OVCAR-8 ovarian = system: OVCAR-8 ovarian
PC-3 prostate = system: PC-3 prostate
RPMI-8226 leukemia = system: RPMI-8226 leukemia
RXF 393 renal = system: RXF 393 renal
SF-268 CNS = system: SF-268 CNS
SF-295 CNS = system: SF-295 CNS
SF-539 CNS = system: SF-539 CNS
SK-MEL-2 melanoma = system: SK-MEL-2 melanoma
SK-MEL-28 melanoma = system: SK-MEL-28 melanoma
SK-MEL-5 melanoma = system: SK-MEL-5 melanoma
SK-OV-3 ovarian = system: SK-OV-3 ovarian
SN12C renal = system: SN12C renal
SNB-19 CNS = system: SNB-19 CNS
SW-620 colon = system: SW-620 colon
T-47D breast = system: T-47D breast
TK-10 renal = system: TK-10 renal
U251 CNS = system: U251 CNS
UACC-257 melanoma = system: UACC-257 melanoma
UACC-62 melanoma = system: UACC-62 melanoma
UO-31 renal = system: UO-31 renal
SNB-75 CNS = system: SNB-75 CNS
SR leukemia = system: SR leukemia

## Cc1[nH]c2c(C)ccc(C)c2c1CC(=O)O
786-0 renal
  TGI: > 100 µM
A498 renal
  TGI: > 100 µM
A549 NSCLC
  TGI: > 100 µM
ACHN renal
  TGI: > 100 µM
BT-549 breast
  TGI: > 100 µM
CAKI-1 renal
  TGI: > 100 µM
CCRF-CEM leukemia
  TGI: 42.3 µM
COLO 205 colon
  TGI: > 100 µM
DU-145 prostate
  TGI: > 100 µM
EKVX NSCLC
  TGI: > 100 µM
HCC-2998 colon
  TGI: > 100 µM
HCT-116 colon
  TGI: > 100 µM
HCT-15 colon
  TGI: > 100 µM
HL-60(TB) leukemia
  TGI: 23.7 µM
HOP-62 NSCLC
  TGI: > 100 µM
HS 578T breast
  TGI: 60.4 µM
HT29 colon
  TGI: > 100 µM
IGROV1 ovarian
  TGI: > 100 µM
K-562 leukemia
  TGI: > 100 µM
KM12 colon
  TGI: > 100 µM
LOX IMVI melanoma
  TGI: > 100 µM
M14 melanoma
  TGI: > 100 µM
MALME-3M melanoma
  TGI: > 100 µM
MCF7 breast
  TGI: > 100 µM
MDA-MB-231 breast
  TGI: 76.3 µM
MDA-MB-435
  TGI: > 100 µM
MDA-N
  TGI: > 100 µM
MOLT-4 leukemia
  TGI: 54.1 µM
NCI-H226 lung
  TGI: > 100 µM
NCI-H23 lung
  TGI: > 100 µM
NCI-H460 lung
  TGI: > 100 µM
NCI-H522 lung
  TGI: 62.1 µM
NCI/ADR-RES ovarian
  TGI: > 100 µM
OVCAR-3 ovarian
  TGI: > 100 µM
OVCAR-4 ovarian
  TGI: > 100 µM
OVCAR-5 ovarian
  TGI: > 100 µM
OVCAR-8 ovarian
  TGI: > 100 µM
PC-3 prostate
  TGI: 69.9 µM
RPMI-8226 leukemia
  TGI: 66.8 µM
RXF 393 renal
  TGI: > 100 µM
SF-268 CNS
  TGI: > 100 µM
SF-295 CNS
  TGI: > 100 µM
SF-539 CNS
  TGI: > 100 µM
SK-MEL-2 melanoma
  TGI: 81.9 µM
SK-MEL-28 melanoma
  TGI: > 100 µM
SK-MEL-5 melanoma
  TGI: > 100 µM
SK-OV-3 ovarian
  TGI: > 100 µM
SN12C renal
  TGI: > 100 µM
SNB-19 CNS
  TGI: > 100 µM
SW-620 colon
  TGI: > 100 µM
T-47D breast
  TGI: > 100 µM
TK-10 renal
  TGI: > 100 µM
U251 CNS
  TGI: > 100 µM
UACC-257 melanoma
  TGI: > 100 µM
UACC-62 melanoma
  TGI: > 100 µM
UO-31 renal
  TGI: > 100 µM

## CC(C)(C)CN1[C@@H]2CCCC[C@H]2N(CC(C)(C)C)P1(=O)Cc1ccccc1
786-0 renal
  TGI: 29.9 µM
A549 NSCLC
  TGI: 24.1 µM
ACHN renal
  TGI: 28.5 µM
BT-549 breast
  TGI: 31.2 µM
CAKI-1 renal
  TGI: 27.3 µM
CCRF-CEM leukemia
  TGI: 31.3 µM
COLO 205 colon
  TGI: 22.2 µM
DU-145 prostate
  TGI: 30 µM
EKVX NSCLC
  TGI: 27.4 µM
HCC-2998 colon
  TGI: 21.2 µM
HCT-116 colon
  TGI: 22.6 µM
HCT-15 colon
  TGI: 25 µM
HL-60(TB) leukemia
  TGI: 26.4 µM
HOP-62 NSCLC
  TGI: 31.3 µM
HS 578T breast
  TGI: 31 µM
HT29 colon
  TGI: 21.7 µM
IGROV1 ovarian
  TGI: 23.3 µM
K-562 leukemia
  TGI: 28.2 µM
KM12 colon
  TGI: 34.3 µM
LOX IMVI melanoma
  TGI: 29.6 µM
M14 melanoma
  TGI: 26.3 µM
MALME-3M melanoma
  TGI: 26.3 µM
MCF7 breast
  TGI: 26.2 µM
MDA-MB-231 breast
  TGI: 24.9 µM
MDA-MB-435
  TGI: 32.7 µM
MDA-N
  TGI: 28.4 µM
MOLT-4 leukemia
  TGI: 27.5 µM
NCI-H226 lung
  TGI: 29.7 µM
NCI-H23 lung
  TGI: 26.2 µM
NCI-H460 lung
  TGI: 28.1 µM
NCI-H522 lung
  TGI: 20.6 µM
NCI/ADR-RES ovarian
  TGI: 27.1 µM
OVCAR-3 ovarian
  TGI: 23.5 µM
OVCAR-4 ovarian
  TGI: 24.9 µM
OVCAR-5 ovarian
  TGI: 25.4 µM
OVCAR-8 ovarian
  TGI: 27.7 µM
PC-3 prostate
  TGI: 19.4 µM
RXF 393 renal
  TGI: 24.1 µM
SF-268 CNS
  TGI: 28.7 µM
SF-295 CNS
  TGI: 23.1 µM
SF-539 CNS
  TGI: 31.6 µM
SK-MEL-2 melanoma
  TGI: 29.9 µM
SK-MEL-28 melanoma
  TGI: 31.7 µM
SK-MEL-5 melanoma
  TGI: 24.8 µM
SK-OV-3 ovarian
  TGI: 29.2 µM
SN12C renal
  TGI: 30.1 µM
SNB-19 CNS
  TGI: 28.6 µM
SNB-75 CNS
  TGI: 24.1 µM
SR leukemia
  TGI: 29.7 µM
SW-620 colon
  TGI: 30.7 µM
T-47D breast
  TGI: 26.6 µM
TK-10 renal
  TGI: 25 µM
U251 CNS
  TGI: 26.5 µM
UACC-257 melanoma
  TGI: 25.6 µM
UACC-62 melanoma
  TGI: 22.5 µM
UO-31 renal
  TGI: 26.1 µM

Source: PubChem BioAssay (NCI)
